From the supplement of paper PMC10307832

Legend:
Assay in all cases: relative viability (nuclei count vs DMSO), 5 days (fraction); higher = more cells survive
[1] = compound: CC1(C)CNc2cc(NC(=O)c3cccnc3NCc3ccncc3)ccc21 [Motesanib] + Cc1cc(Nc2cc(N3CCN(C)CC3)nc(Sc3ccc(NC(=O)C4CC4)cc3)n2)n[nH]1 [Tozasertib] (partner 0.1 µM)
Outline: (§1)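 Lung cancer cell lines, seeded in 1536-well plates, were treated the following day by pin tool with a single drug or with five library-drug doses (not always all listed) in √10 steps on top of a fixed anchor-drug dose. Cells were fixed and nuclei stained in one step after 5 days, and nuclei were counted. Relative viability is the nuclei count for treated wells divided by that for vehicle wells, reported as medians of duplicate plates.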

[2] = compound: C[C@@]1(C(=O)Nc2ccc(F)nc2)CCCN1c1nc(Nc2cc(C3CC3)n[nH]2)c2cccn2n1 + Nc1nc2[nH]cc(CCc3ccc(C(=O)N[C@@H](CCC(=O)O)C(=O)O)cc3)c2c(=O)[nH]1 [Pemetrexed] (partner 0.2 µM)
Outline: as §1

[3] = compound: C[C@@]1(C(=O)Nc2ccc(F)nc2)CCCN1c1nc(Nc2cc(C3CC3)n[nH]2)c2cccn2n1 + Cc1nc(Nc2ncc(C(=O)Nc3c(C)cccc3Cl)s2)cc(N2CCN(CCO)CC2)n1 [Dasatinib] (partner 0.075 µM)
Outline: as §1

[4] = compound: C[C@@]1(C(=O)Nc2ccc(F)nc2)CCCN1c1nc(Nc2cc(C3CC3)n[nH]2)c2cccn2n1 + COc1cccc2cc(-c3nc([C@H]4CC[C@H](C(=O)O)CC4)n4ncnc(N)c34)[nH]c12 [OSI-027] (partner 0.5 µM)
Outline: as §1

UMC-11
relative viability ([1]; first compound 0.01 µM): 0.205 | relative viability ([1]; first compound 0.03162 µM): 0.213 | relative viability ([1]; first compound 0.1 µM): 0.216 | relative viability ([1]; first compound 0.3162 µM): 0.207 | relative viability ([1]; first compound 1 µM): 0.228 | relative viability ([2]; first compound 0.04 µM): 0.773 | relative viability ([2]; first compound 0.1265 µM): 0.827 | relative viability ([2]; first compound 0.4 µM): 0.705 | relative viability ([2]; first compound 1.265 µM): 0.722 | relative viability ([3]; first compound 0.04 µM): 0.478 | relative viability ([3]; first compound 0.1265 µM): 0.471 | relative viability ([3]; first compound 0.4 µM): 0.399 | relative viability ([3]; first compound 1.265 µM): 0.278 | relative viability ([4]; first compound 0.04 µM): 0.531 | relative viability ([4]; first compound 0.1265 µM): 0.416 | relative viability ([4]; first compound 0.4 µM): 0.485 | relative viability ([4]; first compound 1.265 µM): 0.37
